Measured values taken from the NIST ThermoML archive (doi:10.1016/j.jct.2015.04.030).

Assay: excess molar enthalpy (molar enthalpy of mixing); xn = mol fraction of the nth substance listed
Conditions: 100 kPa, Liquid, Calvet calorimetry

NCCNCCNCCN [1,2-ethanediamine, N,N'-bis(2-aminoethyl)-] + O
Conditions	excess molar enthalpy [kcal/mol]
303.15 K, x1 = 0.0497	-0.671
303.15 K, x1 = 0.0697	-0.889
303.15 K, x1 = 0.1129	-1.25
303.15 K, x1 = 0.2006	-1.57
303.15 K, x1 = 0.2478	-1.62
303.15 K, x1 = 0.3031	-1.6
303.15 K, x1 = 0.3527	-1.55
303.15 K, x1 = 0.4038	-1.4
303.15 K, x1 = 0.5069	-1.15
303.15 K, x1 = 0.589	-0.974
303.15 K, x1 = 0.701	-0.71
323.15 K, x1 = 0.0496	-0.633
323.15 K, x1 = 0.1103	-1.2
323.15 K, x1 = 0.1998	-1.44
323.15 K, x1 = 0.2469	-1.5
323.15 K, x1 = 0.3041	-1.49
323.15 K, x1 = 0.4041	-1.32
323.15 K, x1 = 0.4995	-1.11
323.15 K, x1 = 0.602	-0.91
323.15 K, x1 = 0.7006	-0.636

NCCOCCO [2-(2-aminoethoxy)ethanol] + O
Conditions	excess molar enthalpy [kcal/mol]
303.15 K, x1 = 0.0626	-0.24
303.15 K, x1 = 0.1041	-0.355
303.15 K, x1 = 0.1949	-0.509
303.15 K, x1 = 0.3027	-0.551
303.15 K, x1 = 0.3448	-0.565
303.15 K, x1 = 0.398	-0.556
303.15 K, x1 = 0.5045	-0.483
303.15 K, x1 = 0.604	-0.414
303.15 K, x1 = 0.7062	-0.333
303.15 K, x1 = 0.8105	-0.223
303.15 K, x1 = 0.9035	-0.11
323.15 K, x1 = 0.0628	-0.222
323.15 K, x1 = 0.1062	-0.335
323.15 K, x1 = 0.1982	-0.468
323.15 K, x1 = 0.3017	-0.527
323.15 K, x1 = 0.342	-0.539
323.15 K, x1 = 0.4004	-0.527
323.15 K, x1 = 0.5053	-0.483
323.15 K, x1 = 0.5967	-0.417
323.15 K, x1 = 0.7043	-0.329
323.15 K, x1 = 0.8037	-0.224
323.15 K, x1 = 0.9032	-0.107

CN(C)CCN(C)CCO [2-{[2-(dimethylamino)ethyl](methyl)amino}ethanol] + O
303.15 K
Conditions	excess molar enthalpy [kcal/mol]
x1 = 0.1012	-0.696
x1 = 0.2028	-0.863
x1 = 0.25	-0.894
x1 = 0.3015	-0.862
x1 = 0.4004	-0.836
x1 = 0.4989	-0.716

CN(C)CCCO [3-dimethylamino-1-propanol] + O
Conditions	excess molar enthalpy [kcal/mol]
303.15 K, x1 = 0.0505	-0.252
303.15 K, x1 = 0.1027	-0.436
303.15 K, x1 = 0.1998	-0.601
303.15 K, x1 = 0.3003	-0.683
303.15 K, x1 = 0.3515	-0.689
303.15 K, x1 = 0.3975	-0.69
303.15 K, x1 = 0.5019	-0.647
303.15 K, x1 = 0.6483	-0.502
303.15 K, x1 = 0.8001	-0.301
303.15 K, x1 = 0.9452	-0.0951
323.15 K, x1 = 0.0495	-0.229
323.15 K, x1 = 0.1003	-0.35
323.15 K, x1 = 0.1782	-0.485
323.15 K, x1 = 0.3006	-0.587
323.15 K, x1 = 0.3485	-0.597
323.15 K, x1 = 0.3981	-0.6
323.15 K, x1 = 0.4977	-0.568
323.15 K, x1 = 0.6455	-0.438
323.15 K, x1 = 0.7962	-0.269
323.15 K, x1 = 0.9446	-0.0743

CCN(CC)CCO [(diethylamino)ethanol] + O
Conditions	excess molar enthalpy [kcal/mol]
303.15 K, x1 = 0.0504	-0.253
303.15 K, x1 = 0.1001	-0.377
303.15 K, x1 = 0.2008	-0.522
303.15 K, x1 = 0.301	-0.607
303.15 K, x1 = 0.3688	-0.62
303.15 K, x1 = 0.387	-0.625
303.15 K, x1 = 0.4002	-0.621
303.15 K, x1 = 0.4522	-0.611
303.15 K, x1 = 0.5002	-0.598
303.15 K, x1 = 0.5998	-0.528
303.15 K, x1 = 0.7003	-0.418
303.15 K, x1 = 0.8007	-0.288
303.15 K, x1 = 0.901	-0.144
323.15 K, x1 = 0.0502	-0.192
323.15 K, x1 = 0.1009	-0.296
323.15 K, x1 = 0.1951	-0.407
323.15 K, x1 = 0.3002	-0.482
323.15 K, x1 = 0.369	-0.499
323.15 K, x1 = 0.4006	-0.502
323.15 K, x1 = 0.5005	-0.477
323.15 K, x1 = 0.6	-0.422
323.15 K, x1 = 0.6191	-0.386
323.15 K, x1 = 0.6997	-0.341
323.15 K, x1 = 0.8005	-0.252
323.15 K, x1 = 0.9006	-0.12

CN(C)CCN(C)CCN(C)C [N,N,N',N'',N''-pentamethyldiethylenetriamine] + O
excess molar enthalpy [kcal/mol]
Conditions	303.15 K	323.15 K
x1 = 0.0486	-0.641	–
x1 = 0.0506	–	-0.561
x1 = 0.099	-0.948	–
x1 = 0.1024	–	-0.825
x1 = 0.15	-1.03	-0.908
x1 = 0.2	–	-0.951
x1 = 0.2072	-1.08	–
x1 = 0.2492	-1.05	–
x1 = 0.25	–	-0.927
x1 = 0.3	-1	–
x1 = 0.3062	–	-0.869
x1 = 0.4001	–	-0.77
x1 = 0.4063	-0.841	–
x1 = 0.4895	-0.727	–
x1 = 0.5005	–	-0.618
x1 = 0.6001	–	-0.478
x1 = 0.6117	-0.538	–

NCCNCCO [N-(2-aminoethyl)ethanolamine] + O
303.15 K
Conditions	excess molar enthalpy [kcal/mol]
x1 = 0.1031	-0.554
x1 = 0.202	-0.863
x1 = 0.3019	-0.963
x1 = 0.3567	-0.995
x1 = 0.4023	-0.957
x1 = 0.4991	-0.88
x1 = 0.5997	-0.74
x1 = 0.7027	-0.579

NCCCNCCCN [bis(3-aminopropyl)amine] + O
excess molar enthalpy [kcal/mol]
Conditions	303.15 K	323.15 K
x1 = 0.0507	–	-0.581
x1 = 0.0508	-0.621	–
x1 = 0.1064	–	-1.05
x1 = 0.1065	-1.11	–
x1 = 0.1991	–	-1.43
x1 = 0.1993	-1.52	–
x1 = 0.3005	-1.57	-1.48
x1 = 0.4049	-1.47	–
x1 = 0.4057	–	-1.34
x1 = 0.4998	-1.33	–
x1 = 0.5003	–	-1.21
x1 = 0.602	-1.09	–
x1 = 0.6022	–	-0.916
x1 = 0.6842	-0.83	-0.744
x1 = 0.8014	–	-0.463
x1 = 0.8015	-0.534	–

NCCNCCN [di(2-aminoethyl)amine] + O
Conditions	excess molar enthalpy [kcal/mol]
303.15 K, x1 = 0.0509	-0.542
303.15 K, x1 = 0.1001	-0.981
303.15 K, x1 = 0.1544	-1.33
303.15 K, x1 = 0.1962	-1.48
303.15 K, x1 = 0.2416	-1.56
303.15 K, x1 = 0.3018	-1.59
303.15 K, x1 = 0.4026	-1.52
303.15 K, x1 = 0.501	-1.29
303.15 K, x1 = 0.6025	-1.05
303.15 K, x1 = 0.702	-0.811
303.15 K, x1 = 0.7984	-0.57
323.15 K, x1 = 0.0503	-0.504
323.15 K, x1 = 0.0989	-0.911
323.15 K, x1 = 0.2028	-1.41
323.15 K, x1 = 0.3003	-1.51
323.15 K, x1 = 0.4044	-1.38
323.15 K, x1 = 0.51	-1.21
323.15 K, x1 = 0.6027	-0.938
323.15 K, x1 = 0.7018	-0.762
323.15 K, x1 = 0.7983	-0.512

OCCNCCO [diethanolamine] + O
298.15 K
Conditions	excess molar enthalpy [kcal/mol]
x1 = 0.05035	-0.13
x1 = 0.1001	-0.266
x1 = 0.1989	-0.41
x1 = 0.2023	-0.415
x1 = 0.2958	-0.484
x1 = 0.3428	-0.494
x1 = 0.3974	-0.491
x1 = 0.4915	-0.465
x1 = 0.599	-0.38
x1 = 0.7038	-0.304
x1 = 0.795	-0.223
x1 = 0.9029	-0.0989

OCCN(CCO)CCO [triethanolamine] + O
Conditions	excess molar enthalpy [kcal/mol]
303.15 K, x1 = 0.0473	-0.128
303.15 K, x1 = 0.1013	-0.222
303.15 K, x1 = 0.2063	-0.308
303.15 K, x1 = 0.3064	-0.334
303.15 K, x1 = 0.3548	-0.335
303.15 K, x1 = 0.4076	-0.327
303.15 K, x1 = 0.4902	-0.292
303.15 K, x1 = 0.5783	-0.267
303.15 K, x1 = 0.71	-0.201
303.15 K, x1 = 0.7943	-0.145
303.15 K, x1 = 0.8959	-0.0758
323.15 K, x1 = 0.0487	-0.119
323.15 K, x1 = 0.1001	-0.207
323.15 K, x1 = 0.2028	-0.288
323.15 K, x1 = 0.3033	-0.317
323.15 K, x1 = 0.3502	-0.322
323.15 K, x1 = 0.4	-0.319
323.15 K, x1 = 0.5021	-0.279
323.15 K, x1 = 0.6021	-0.249
323.15 K, x1 = 0.6989	-0.198
323.15 K, x1 = 0.8006	-0.14
323.15 K, x1 = 0.9009	-0.0679
